Reference: US8846947B2, “Benzimidazoles and related analogs as sirtuin modulators” (GlaxoSmithKline LLC, priority 2008, dated 2014)
Where two headings read alike, the source gives them in different places.

Molecular target: T1, SIRT1 (Homo sapiens, UniProt Q96EB6)
T1 sequence (Q96EB6 1-747): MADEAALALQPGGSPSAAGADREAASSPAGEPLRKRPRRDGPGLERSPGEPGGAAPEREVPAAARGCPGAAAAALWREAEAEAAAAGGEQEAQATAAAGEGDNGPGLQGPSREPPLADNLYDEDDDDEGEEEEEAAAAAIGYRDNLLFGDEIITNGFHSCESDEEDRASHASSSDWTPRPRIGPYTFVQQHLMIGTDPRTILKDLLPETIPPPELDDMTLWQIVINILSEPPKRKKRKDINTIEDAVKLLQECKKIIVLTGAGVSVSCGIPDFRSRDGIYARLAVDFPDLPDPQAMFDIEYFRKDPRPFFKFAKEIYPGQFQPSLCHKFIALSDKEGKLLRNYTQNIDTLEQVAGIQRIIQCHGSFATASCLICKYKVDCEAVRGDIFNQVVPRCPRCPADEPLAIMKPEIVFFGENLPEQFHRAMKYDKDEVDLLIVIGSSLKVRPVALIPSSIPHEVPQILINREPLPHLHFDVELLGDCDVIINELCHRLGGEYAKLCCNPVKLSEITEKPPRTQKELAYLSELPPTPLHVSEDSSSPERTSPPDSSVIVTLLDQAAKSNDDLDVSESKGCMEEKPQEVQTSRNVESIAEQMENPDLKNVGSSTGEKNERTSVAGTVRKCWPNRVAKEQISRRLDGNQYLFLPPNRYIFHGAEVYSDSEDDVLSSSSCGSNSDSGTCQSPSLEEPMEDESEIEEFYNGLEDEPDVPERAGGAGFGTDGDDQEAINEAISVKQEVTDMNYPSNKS
Experiment: Mass spectrometry based SIRT1 deacetylase activation assay (acetylated p53-derived peptide substrate)
Type: biochemical

[1] = 0.5 μM peptide substrate, 120 μM βNAD+, 10 nM SIRT1, 25 min at 25° C.
[2] = 0.5 μM peptide substrate, 120 μM βNAD+, 10 nM SIRT1, 25 min at 25° C., read-out: EC1.5
[3] = 0.5 μM peptide substrate, 120 μM βNAD+, 10 nM SIRT1, 25 minutes at 25° C.

Row | SMILES | EC1.5 [3] | Fold Act. (percent maximum fold activation) [3] | other results
1 | Cc1cc(Cl)cc(-c2nc3c(C(=O)Nc4nccs4)cccc3[nH]2)c1OCCN1CCOCC1 [Compound 505] | – | – | Fold Act. (percent maximum fold activation) [1]: A (Fold activation >200%); EC1.5 [2]: 1 to 25 µM
2 | O=C(Nc1cccc(OC[C@@H](O)CO)c1)c1cncc2[nH]c(-c3ccccc3C(F)F)nc12 [Compound 714] | A (EC1.5<1.0 uM) | A (Fold activation >200%) | –
3 | CC1(C)Cc2cccc(-c3nc4c(C(=O)Nc5nccs5)cccc4[nH]3)c2O1 [Compound 383] | – | – | EC1.5: B (EC1.5 1-25 uM); Fold Act. (percent maximum fold activation): B (Fold Activation <200%)
4 | O=C(Nc1nccs1)c1cccc2[nH]c(-c3ccccc3OCCN3CCC(F)(F)CC3)nc12 [Compound 579] | – | – | Fold Act. (percent maximum fold activation) [1]: B (Fold Activation <200%); EC1.5 [2]: > 25 µM
5 | O=C(Nc1cccc(OC[C@H](O)CO)c1)c1cncc2[nH]c(-c3ccc(Cl)cc3C(F)(F)F)nc12 [Compound 739] | A (EC1.5<1.0 uM) | A (Fold activation >200%) | –
6 | C[C@@H]1CN(c2ccc(C(F)(F)F)c(-c3nc4c(C(=O)Nc5nccs5)cccc4[nH]3)c2)C[C@H](C)O1 [Compound 662] | B (EC1.5 1-25 uM) | A (Fold activation >200%) | –
7 | O=C(Nc1cccc(CN2CCCC2)n1)c1cccc2[nH]c(-c3cc(F)ccc3C(F)(F)F)nc12 [Compound 623] | A (EC1.5<1.0 uM) | A (Fold activation >200%) | –
8 | O=C(Nc1nccs1)c1cccc2[nH]c(-c3cccnc3N3CCNCC3)nc12 [Compound 282] | – | – | EC1.5: B (EC1.5 1-25 uM); Fold Act. (percent maximum fold activation): A (Fold activation >200%)
9 | O=C(NC1CCOCC1)c1cccc2[nH]c(-c3ccc(F)cc3C(F)(F)F)nc12 [Compound 436] | – | – | Fold Act. (percent maximum fold activation) [1]: B (Fold Activation <200%); EC1.5 [2]: 1 to 25 µM
10 | O=C(Nc1nccs1)c1cccc2[nH]c(-c3ccc(OCCN4CCOCC4)cc3)nc12 [Compound 339] | – | – | EC1.5: A (EC1.5<1.0 uM); Fold Act. (percent maximum fold activation): A (Fold activation >200%)
11 | Cc1cc(C)nc(NC(=O)c2cccc3[nH]c(-c4ccc(F)cc4C(F)(F)F)nc23)c1 [Compound 359] | – | – | EC1.5: A (EC1.5<1.0 uM); Fold Act. (percent maximum fold activation): A (Fold activation >200%)
12 | O=C(Nc1ccccn1)c1cc(F)cc2nc(-c3cc(F)ccc3C(F)F)[nH]c12 [Compound 837] | A (EC1.5<1.0 uM) | A (Fold activation >200%) | –
13 | O=C(Nc1cccnn1)c1cncc2[nH]c(-c3ccc(N4CCCC4)cc3C(F)F)nc12 [Compound 802] | A (EC1.5<1.0 uM) | A (Fold activation >200%) | –
14 | O=C(Nc1cccnc1)c1cccc2[nH]c(-c3ccc(N4CCCC4)cc3C(F)F)nc12 [Compound 774] | A (EC1.5<1.0 uM) | A (Fold activation >200%) | –
15 | O=C(Nc1ccncn1)c1cncc2[nH]c(-c3ccc(N4CCCC4)cc3C(F)F)nc12 [Compound 803] | A (EC1.5<1.0 uM) | A (Fold activation >200%) | –
16 | CS(=O)(=O)c1ccc(F)cc1-c1nc2c(C(=O)Nc3cccnc3)cccc2[nH]1 [Compound 659] | B (EC1.5 1-25 uM) | A (Fold activation >200%) | –
17 | CC(C)N1CCN(CCOc2ccccc2-c2nc3c(C(=O)Nc4ccccn4)cccc3[nH]2)CC1 [Compound 486] | – | – | Fold Act. (percent maximum fold activation) [1]: A (Fold activation >200%); EC1.5 [2]: 1 to 25 µM

Row | SMILES | EC1.5 [3] | Fold Act. (percent maximum fold activation) [3] | other results
18 | Cc1cnc(NC(=O)c2cccc3[nH]c(-c4ccnn4-c4ccccc4)nc23)s1 [Compound 381] | – | – | EC1.5: A (EC1.5<1.0 uM); Fold Act. (percent maximum fold activation): A (Fold activation >200%)
19 | O=C(Nc1cccc(CN2CCOCC2)n1)c1cccc2[nH]c(-c3cc(F)ccc3F)nc12 [Compound 855] | A (EC1.5<1.0 uM) | A (Fold activation >200%) | –
20 | O=C(Nc1nccs1)c1cccc2[nH]c(-c3ccc(N4CC[C@@H](F)C4)cc3C(F)(F)F)nc12 [Compound 608] | A (EC1.5<1.0 uM) | A (Fold activation >200%) | –
21 | Cc1nc(C)c(-c2nc3c(C(=O)Nc4cccc(CN5CCOCC5)n4)cccc3[nH]2)s1 [Compound 847] | A (EC1.5<1.0 uM) | A (Fold activation >200%) | –
22 | O=C(Nc1cccnc1)c1cccc2[nH]c(-c3ccccc3OC3CCNCC3)nc12 [Compound 539] | – | – | Fold Act. (percent maximum fold activation) [1]: A (Fold activation >200%); EC1.5 [2]: 1 to 25 µM
23 | O=C(Nc1cccc(OCC(O)CO)c1)c1cccc2[nH]c(-c3ccc(Cl)cc3C(F)(F)F)nc12 (centres unmarked) [Compound 740] | A (EC1.5<1.0 uM) | A (Fold activation >200%) | –
24 | O=C(Nc1cccc(OC[C@H](O)CO)c1)c1cncc2[nH]c(-c3ccc(Cl)cc3C(F)F)nc12 [Compound 715] | A (EC1.5<1.0 uM) | A (Fold activation >200%) | –
25 | O=C(Nc1nccs1)c1cccc2[nH]c(-c3cc(F)cc(Cl)c3)nc12 [Compound 220] | – | – | EC1.5: B (EC1.5 1-25 uM); Fold Act. (percent maximum fold activation): A (Fold activation >200%)
26 | O=C(Nc1nc(-c2ccccc2)cs1)c1cccc2[nH]c(-c3cccc(C(F)(F)F)c3)nc12 [Compound 283] | – | – | EC1.5: B (EC1.5 1-25 uM); Fold Act. (percent maximum fold activation): A (Fold activation >200%)
27 | O=C(Nc1cccc(OC[C@H](O)CO)c1)c1cc(F)cc2[nH]c(-c3ccccc3C(F)F)nc12 [Compound 811, (R)-2-(2-(difluoromethyl)phenyl)-N-(3-(2,3-dihydroxypropoxy)phenyl)-6-fluoro-1H-benzo[d]imidazole-4-carboxamide] | A (EC1.5<1.0 uM) | A (Fold activation >200%) | –
28 | O=C(NCc1ccccn1)c1cccc2[nH]c(-c3ccc(Cl)cc3C(F)(F)F)nc12 [Compound 433] | – | – | Fold Act. (percent maximum fold activation) [1]: B (Fold Activation <200%); EC1.5 [2]: 1 to 25 µM
29 | O=C(Nc1ccc(CN2CCCC2)cc1)c1cccc2[nH]c(-c3cc(CN4CCCC4)ccc3C(F)(F)F)nc12 [Compound 873, 2-(5-(pyrrolidin-1-ylmethyl)-2-(trifluoromethyl)phenyl)-N-(4-(pyrrolidin-1-ylmethyl)phenyl)-1H-benzo[d]imidazole-4-carboxamide] | A (EC1.5<1.0 uM) | A (Fold activation >200%) | –
30 | O=C(Nc1ccc(CN2CCCC2)cc1)c1cccc2[nH]c(-c3ccc(Cl)cc3C(F)(F)F)nc12 [Compound 491] | – | – | Fold Act. (percent maximum fold activation) [1]: A (Fold activation >200%); EC1.5 [2]: < 1 µM
31 | CC1(C)CN(CCOc2ccccc2-c2nc3c(C(=O)Nc4ccccn4)cccc3[nH]2)CCO1 [Compound 712] | B (EC1.5 1-25 uM) | B (Fold Activation <200%) | –
32 | O=C(Nc1cnccn1)c1cccc2[nH]c(-c3ccccc3OCCN3CCOCC3)nc12 [Compound 489] | – | – | Fold Act. (percent maximum fold activation) [1]: B (Fold Activation <200%); EC1.5 [2]: 1 to 25 µM
33 | O=C(Nc1cc[nH]n1)c1cccc2[nH]c(-c3cccc(C(F)(F)F)c3)nc12 [Compound 207] | – | – | EC1.5: B (EC1.5 1-25 uM); Fold Act. (percent maximum fold activation): A (Fold activation >200%)
34 | Cn1nc(C(F)(F)F)c(-c2nc3c(C(=O)Nc4cccnc4)cccc3[nH]2)c1Cl [Compound 328] | – | – | EC1.5: A (EC1.5<1.0 uM); Fold Act. (percent maximum fold activation): A (Fold activation >200%)
